Eight compounds from US20240270762A1, “PENICILLIN-BINDING PROTEIN INHIBITORS” (priority 2021, published 2024) can be followed below.

Each structure is given as a SMILES string. pIC50: −log10 of the molar value. In brackets after ≈: the same amount, converted by molar mass.

The target of experiment [1] is T1, PBP1a from Acinetobacter baumannii (ATCC 19606) (Acinetobacter baumannii, UniProt A0ABX6CK30).
T1 sequence (A0ABX6CK30 1-851): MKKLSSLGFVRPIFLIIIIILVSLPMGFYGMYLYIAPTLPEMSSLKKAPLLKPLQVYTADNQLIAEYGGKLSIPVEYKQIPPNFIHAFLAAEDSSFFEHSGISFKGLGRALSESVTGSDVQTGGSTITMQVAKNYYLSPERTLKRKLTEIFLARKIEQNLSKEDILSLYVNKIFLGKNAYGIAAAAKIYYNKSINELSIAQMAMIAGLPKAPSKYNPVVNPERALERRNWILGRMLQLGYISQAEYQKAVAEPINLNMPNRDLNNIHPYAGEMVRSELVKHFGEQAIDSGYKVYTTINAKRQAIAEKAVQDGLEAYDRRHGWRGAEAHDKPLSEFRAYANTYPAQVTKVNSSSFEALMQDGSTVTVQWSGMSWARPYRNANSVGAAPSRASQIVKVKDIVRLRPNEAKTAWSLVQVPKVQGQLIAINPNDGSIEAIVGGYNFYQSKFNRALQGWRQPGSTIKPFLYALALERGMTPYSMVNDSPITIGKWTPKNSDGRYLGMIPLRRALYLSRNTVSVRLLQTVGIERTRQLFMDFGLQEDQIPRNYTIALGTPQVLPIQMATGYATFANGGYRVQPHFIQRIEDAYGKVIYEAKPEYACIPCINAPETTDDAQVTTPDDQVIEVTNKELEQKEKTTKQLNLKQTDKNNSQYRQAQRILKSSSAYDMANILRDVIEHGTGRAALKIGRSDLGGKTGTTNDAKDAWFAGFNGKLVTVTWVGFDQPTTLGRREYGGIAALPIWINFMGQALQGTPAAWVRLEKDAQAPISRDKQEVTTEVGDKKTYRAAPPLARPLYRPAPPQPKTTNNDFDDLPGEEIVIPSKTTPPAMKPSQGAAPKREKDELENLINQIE
The experiment is described as follows: Bocillin-FL fluorescence polarization competition binding, A. baumannii PBP1a. The following applies: fluorescence polarization competition binding assay using Bocillin-FL; read-out: A. baumannii PBP1a Potency. The method, boiled down:
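Purified PBPs pre-incubated with inhibitor (E. coli PBP3 1.5 μM, 30 min; P. aeruginosa PBP3 0.75 μM, A. baumannii PBP1a 1 μM and PBP3 0.2 μM, 15 min), then Bocillin-FL 0.1 μM (0.05 μM for PBP1a) added; FP read up to 60 min. EC50 = concentration halving bound Bocillin-FL.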
(In general: Polarisation of emitted light reports the rotation of a fluorescent probe.)

For the next experiment, the system named is N. gonorrhoeae MS11. Briefly: Liquid broth MIC in Fastidious broth. The following applies: Neisseria gonorrhoeae, MS11, read-out: Minimum Inhibitory Concentration, MS11.
The next experiment concerns N. gonorrhoeae WHO L. Briefly: Liquid broth MIC in Fastidious broth. Conditions: Neisseria gonorrhoeae, read-out: Minimum Inhibitory Concentration, WHO L.
For another experiment, the system named is N. gonorrhoeae WHO M. Briefly: Liquid broth MIC in Fastidious broth. The following applies: Neisseria gonorrhoeae, read-out: Minimum Inhibitory Concentration, WHO M.
A further experiment relates to N. gonorrhoeae WHO K. Briefly: Liquid broth MIC in Fastidious broth. The following applies: Neisseria gonorrhoeae, read-out: Minimum Inhibitory Concentration, WHO K.
The next experiment relates to N. gonorrhoeae WHO X. Briefly: Liquid broth MIC in Fastidious broth. The following applies: Neisseria gonorrhoeae, read-out: Minimum Inhibitory Concentration, WHO X.
The next experiment concerns N. gonorrhoeae WHO Z. Briefly: Liquid broth MIC in Fastidious broth. The following applies: Neisseria gonorrhoeae, read-out: Minimum Inhibitory Concentration, WHO Z.
Another experiment relates to N. gonorrhoeae WHO Q. Briefly: Liquid broth MIC in Fastidious broth. The following applies: Neisseria gonorrhoeae, read-out: Minimum Inhibitory Concentration, WHO Q.
The subject of the next experiment is N. gonorrhoeae CDC-0197. The experiment is described as follows: Liquid broth MIC in Fastidious broth. Conditions: Neisseria gonorrhoeae, CDC0197, read-out: Minimum Inhibitory Concentration, CDC-0197.

In the case of `O=C(NCCS(=O)(=O)N1CCN(C(=O)NC(C(=O)N[C@H]2Cc3ccc(F)c(C(=O)O)c3OB2O)c2cc(F)c(O)c(O)c2Cl)C1=O)Nc1ccc(O)cc1` (stereo partly drawn) [Example 289, (3R)-3-(2-(2-chloro-5-fluoro-3,4-dihydroxyphenyl)-2-(3-((2-(3-(4-hydroxyphenyl)ureido)ethyl)sulfonyl)-2-oxoimidazolidine-1-carboxamido)acetamido)-7-fluoro-2-hydroxy-3,4-dihydro-2H-benzo[e][1,2]oxaborinine-8-carboxylic acid], the pIC50 in experiment [1] was less than 3.60. The MIC in the experiment on N. gonorrhoeae MS11 is 4 to 8 µg/mL (≈ 5.02 to 10 µM); in the experiment with N. gonorrhoeae WHO L it was more than 64 µg/mL; in the experiment with N. gonorrhoeae WHO M it was 4 to 8 µg/mL (≈ 5.02 to 10 µM); with N. gonorrhoeae WHO K, 16 to 32 µg/mL (≈ 20.1 to 40.2 µM); in the experiment with N. gonorrhoeae WHO X, more than 64 µg/mL; with N. gonorrhoeae WHO Z, 4 to 8 µg/mL (≈ 5.02 to 10 µM). In addition, the values for the MIC in the experiment on N. gonorrhoeae WHO Q and in the experiment with N. gonorrhoeae CDC-0197 were 4 to 8 µg/mL (≈ 5.02 to 10 µM) and 16 to 32 µg/mL (≈ 20.1 to 40.2 µM), respectively.

As for `O=C(NCCCN1CCN(C(=O)N[C@H](C(=O)N[C@H]2Cc3ccc(F)c(C(=O)O)c3OB2O)c2cc(F)c(O)c(O)c2Cl)C(=O)C1=O)c1cccc(O)c1Cl` [Example 302, (R)-3-((S)-2-(4-(3-(2-chloro-3-hydroxybenzamido)propyl)-2,3-dioxopiperazine-1-carboxamido)-2-(2-chloro-5-fluoro-3,4-dihydroxyphenyl)acetamido)-7-fluoro-2-hydroxy-3,4-dihydro-2H-benzo[e][1,2]oxaborinine-8-carboxylic acid], the pIC50 in [1] was less than 3.60. Moreover, the MIC with N. gonorrhoeae MS11, in the experiment on N. gonorrhoeae WHO L, in the experiment with N. gonorrhoeae WHO M, with N. gonorrhoeae WHO K, in the experiment with N. gonorrhoeae WHO X and with N. gonorrhoeae WHO Z was more than 64 µg/mL throughout. Moreover, the MIC in the experiment on N. gonorrhoeae WHO Q and in the experiment with N. gonorrhoeae CDC-0197 was more than 64 µg/mL throughout.

Consider `O=C(NCCCN1CCN(C(=O)N[C@H](C(=O)N[C@H]2Cc3ccc(F)c(C(=O)O)c3OB2O)c2cc(F)c(O)c(O)c2Cl)C(=O)C1=O)c1ccnc(F)c1F` [Example 299, (R)-3-((S)-2-(2-chloro-5-fluoro-3,4-dihydroxyphenyl)-2-(4-(3-(2,3-difluoroisonicotinamido)propyl)-2,3-dioxopiperazine-1-carboxamido)acetamido)-7-fluoro-2-hydroxy-3,4-dihydro-2H-benzo[e][1,2]oxaborinine-8-carboxylic acid], for which the pIC50 in [1] is less than 3.60. In addition, the MIC with N. gonorrhoeae MS11, in the experiment on N. gonorrhoeae WHO L, in the experiment on N. gonorrhoeae WHO M, with N. gonorrhoeae WHO K, in the experiment on N. gonorrhoeae WHO X and in the experiment with N. gonorrhoeae WHO Z was more than 64 µg/mL each time. Also, the MIC with N. gonorrhoeae WHO Q and with N. gonorrhoeae CDC-0197 was more than 64 µg/mL throughout.

Turning to `O=C(O)c1c(F)ccc2c1OB(O)[C@@H](NC(=O)C(NC(=O)N1CCN(C3CCN(C(=O)c4cccc(O)c4)CC3)C(=O)C1=O)c1cc(F)c(O)c(O)c1Cl)C2` (stereo partly drawn) [Example 293, (3R)-3-(2-(2-chloro-5-fluoro-3,4-dihydroxyphenyl)-2-(4-(1-(3-hydroxybenzoyl)piperidin-4-yl)-2,3-dioxopiperazine-1-carboxamido)acetamido)-7-fluoro-2-hydroxy-3,4-dihydro-2H-benzo[e][1,2]oxaborinine-8-carboxylic acid], the pIC50 in [1] is less than 3.60. Further, the MIC is 16 to 32 µg/mL (≈ 20.4 to 40.7 µM) in the experiment on N. gonorrhoeae MS11; more than 64 µg/mL in the experiment on N. gonorrhoeae WHO L; 16 to 32 µg/mL (≈ 20.4 to 40.7 µM) in the experiment on N. gonorrhoeae WHO M; more than 64 µg/mL with N. gonorrhoeae WHO K; more than 64 µg/mL in the experiment on N. gonorrhoeae WHO X; more than 64 µg/mL in the experiment on N. gonorrhoeae WHO Z. Further, the MIC in the experiment with N. gonorrhoeae WHO Q and with N. gonorrhoeae CDC-0197 was more than 64 µg/mL throughout.

On to `O=C(NCCCN1CCN(C(=O)NC(C(=O)N[C@H]2Cc3ccc(F)c(C(=O)O)c3OB2O)c2cc(F)c(O)c(O)c2Cl)C1=O)c1cccnc1` (stereo partly drawn) [Example 281, (3R)-3-(2-(2-chloro-5-fluoro-3,4-dihydroxyphenyl)-2-(3-(3-(nicotinamido)propyl)-2-oxoimidazolidine-1-carboxamido)acetamido)-7-fluoro-2-hydroxy-3,4-dihydro-2H-benzo[e][1,2]oxaborinine-8-carboxylic acid], for which the pIC50 in experiment [1] is less than 3.60. For the same compound, the MIC is more than 64 µg/mL with N. gonorrhoeae MS11; more than 64 µg/mL with N. gonorrhoeae WHO L; 16 to 32 µg/mL (≈ 22.3 to 44.6 µM) with N. gonorrhoeae WHO M; more than 64 µg/mL with N. gonorrhoeae WHO K; more than 64 µg/mL in the experiment with N. gonorrhoeae WHO X; 16 to 32 µg/mL (≈ 22.3 to 44.6 µM) in the experiment with N. gonorrhoeae WHO Z. In addition, the MIC with N. gonorrhoeae WHO Q and in the experiment with N. gonorrhoeae CDC-0197 was more than 64 µg/mL each time.

In the case of `O=C(NCCCN1CCN(C(=O)NC(C(=O)N[C@H]2Cc3ccc(F)c(C(=O)O)c3OB2O)c2cc(F)c(O)c(O)c2Cl)C1=O)Nc1ccncc1` (stereo partly drawn) [Example 285, (3R)-3-(2-(2-chloro-5-fluoro-3,4-dihydroxyphenyl)-2-(2-oxo-3-(3-(3-(pyridin-4-yl)ureido)propyl)imidazolidine-1-carboxamido)acetamido)-7-fluoro-2-hydroxy-3,4-dihydro-2H-benzo[e][1,2]oxaborinine-8-carboxylic acid], in experiment [1], the pIC50 was less than 3.60. The MIC with N. gonorrhoeae MS11, in the experiment with N. gonorrhoeae WHO L, in the experiment on N. gonorrhoeae WHO M, in the experiment with N. gonorrhoeae WHO K, in the experiment on N. gonorrhoeae WHO X and in the experiment on N. gonorrhoeae WHO Z was more than 64 µg/mL each time. Also, the MIC with N. gonorrhoeae WHO Q and in the experiment with N. gonorrhoeae CDC-0197 was more than 64 µg/mL throughout.

With `O=C(NCCCS(=O)(=O)N1CCN(C(=O)NC(C(=O)N[C@H]2Cc3ccc(F)c(C(=O)O)c3OB2O)c2cc(F)c(O)c(O)c2Cl)C1=O)Nc1ccncc1` (stereo partly drawn) [Example 291, (3R)-3-(2-(2-chloro-5-fluoro-3,4-dihydroxyphenyl)-2-(2-oxo-3-((3-(3-(pyridin-4-yl)ureido)propyl)sulfonyl)imidazolidine-1-carboxamido)acetamido)-7-fluoro-2-hydroxy-3,4-dihydro-2H-benzo[e][1,2]oxaborinine-8-carboxylic acid], in experiment [1], the pIC50 was less than 3.60. Also, the MIC in the experiment on N. gonorrhoeae MS11 was 16 to 32 µg/mL (≈ 20.1 to 40.2 µM); with N. gonorrhoeae WHO L, more than 64 µg/mL; in the experiment on N. gonorrhoeae WHO M, 16 to 32 µg/mL (≈ 20.1 to 40.2 µM); in the experiment on N. gonorrhoeae WHO K it was more than 64 µg/mL; in the experiment on N. gonorrhoeae WHO X, more than 64 µg/mL; with N. gonorrhoeae WHO Z, 4 to 8 µg/mL (≈ 5.03 to 10.1 µM). Besides, the MIC in the experiment with N. gonorrhoeae WHO Q and in the experiment with N. gonorrhoeae CDC-0197 was 16 to 32 µg/mL (≈ 20.1 to 40.2 µM) throughout.

In the case of `O=C(NCCCS(=O)(=O)N1CCN(C(=O)NC(C(=O)N[C@H]2Cc3ccc(F)c(C(=O)O)c3OB2O)c2cc(F)c(O)c(O)c2Cl)C1=O)Nc1cccnc1` (stereo partly drawn) [Example 278, (3R)-3-(2-(2-chloro-5-fluoro-3,4-dihydroxyphenyl)-2-(2-oxo-3-((3-(3-(pyridin-3-yl)ureido)propyl)sulfonyl)imidazolidine-1-carboxamido)acetamido)-7-fluoro-2-hydroxy-3,4-dihydro-2H-benzo[e][1,2]oxaborinine-8-carboxylic acid], the pIC50 in experiment [1] was less than 3.60. Further, the MIC in the experiment with N. gonorrhoeae MS11 is 16 to 32 µg/mL (≈ 20.1 to 40.2 µM); with N. gonorrhoeae WHO L, more than 64 µg/mL; with N. gonorrhoeae WHO M it was 16 to 32 µg/mL (≈ 20.1 to 40.2 µM); in the experiment on N. gonorrhoeae WHO K, more than 64 µg/mL; in the experiment with N. gonorrhoeae WHO X, more than 64 µg/mL; in the experiment on N. gonorrhoeae WHO Z, 16 to 32 µg/mL (≈ 20.1 to 40.2 µM). Further, the MIC with N. gonorrhoeae WHO Q and with N. gonorrhoeae CDC-0197 was 16 to 32 µg/mL (≈ 20.1 to 40.2 µM) throughout.
